Paper PMC11576293, “New series of 4,6-diaryl pyrimidines: facile synthesis and antiproliferative activity as dual EGFR/VEGFR-2 inhibitors” (Frontiers in Chemistry, 2024)

Columns and labels:
Test in all cases: NCI-60 single-dose screen
Format in all cases: cell-based
[1] = test system: 786-0; settings: Homo sapiens, single dose 10 µM, '-' = no inhibition, read-out: % Growth Inhibition
How it was run: (§1)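 Single concentration of 10 μM applied to every line of the 60-cell-line NCI panel. Testing performed by NCI DTP.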

[2] = test system: A498; settings: Homo sapiens, single dose 10 µM, '-' = no inhibition, read-out: % Growth Inhibition
How it was run: as §1

[3] = test system: A549/ATCC; settings: Homo sapiens, single dose 10 µM, '-' = no inhibition, read-out: % Growth Inhibition
How it was run: as §1

[4] = test system: ACHN 1; settings: Homo sapiens, single dose 10 µM, '-' = no inhibition, read-out: % Growth Inhibition
How it was run: as §1

[5] = test system: BT-549; settings: Homo sapiens, single dose 10 µM, '-' = no inhibition, read-out: % Growth Inhibition
How it was run: as §1

[6] = test system: CAKI-1; settings: Homo sapiens, single dose 10 µM, '-' = no inhibition, read-out: % Growth Inhibition
How it was run: as §1

[7] = test system: COLO 205; settings: Homo sapiens, single dose 10 µM, '-' = no inhibition, read-out: % Growth Inhibition
How it was run: as §1

[8] = test system: DU-145; settings: Homo sapiens, single dose 10 µM, '-' = no inhibition, read-out: % Growth Inhibition
How it was run: as §1

[9] = test system: EKVX; settings: Homo sapiens, single dose 10 µM, '-' = no inhibition, read-out: % Growth Inhibition
How it was run: as §1

[10] = test system: HCT-15; settings: Homo sapiens, single dose 10 µM, '-' = no inhibition, read-out: % Growth Inhibition
How it was run: as §1

[11] = test system: HL-60(TB); settings: Homo sapiens, single dose 10 µM, '-' = no inhibition, read-out: % Growth Inhibition
[12] = test system: HOP-62; settings: Homo sapiens, single dose 10 µM, '-' = no inhibition, read-out: % Growth Inhibition
How it was run: as §1

[13] = test system: HOP-92; settings: Homo sapiens, single dose 10 µM, '-' = no inhibition, read-out: % Growth Inhibition
How it was run: as §1

[14] = test system: HT29; settings: Homo sapiens, HT-29, single dose 10 µM, '-' = no inhibition, read-out: % Growth Inhibition
How it was run: as §1

[15] = test system: IGROV1; settings: Homo sapiens, IGROV-1, single dose 10 µM, '-' = no inhibition, read-out: % Growth Inhibition
How it was run: as §1

[16] = test system: KM12; settings: Homo sapiens, single dose 10 µM, '-' = no inhibition, read-out: % Growth Inhibition
How it was run: as §1

[17] = test system: LOX IMVI; settings: Homo sapiens, single dose 10 µM, '-' = no inhibition, read-out: % Growth Inhibition
How it was run: as §1

[18] = test system: M14; settings: Homo sapiens, single dose 10 µM, '-' = no inhibition, read-out: % Growth Inhibition
How it was run: as §1

[19] = test system: MALME-3M; settings: Homo sapiens, single dose 10 µM, '-' = no inhibition, read-out: % Growth Inhibition
How it was run: as §1

[20] = test system: MDA-MB-468; settings: Homo sapiens, single dose 10 µM, '-' = no inhibition, read-out: % Growth Inhibition
How it was run: as §1

[21] = test system: MDA-MB231/ATCC; settings: Homo sapiens, MDA-MB-231, single dose 10 µM, '-' = no inhibition, read-out: % Growth Inhibition
How it was run: as §1

[22] = test system: MOLT-4; settings: Homo sapiens, single dose 10 µM, '-' = no inhibition, read-out: % Growth Inhibition
How it was run: as §1

[23] = test system: NCI-H23; settings: Homo sapiens, single dose 10 µM, '-' = no inhibition, read-out: % Growth Inhibition
How it was run: as §1

[24] = test system: NCI-H322M; settings: Homo sapiens, single dose 10 µM, '-' = no inhibition, read-out: % Growth Inhibition
How it was run: as §1

[25] = test system: NCI-H460; settings: Homo sapiens, single dose 10 µM, '-' = no inhibition, read-out: % Growth Inhibition
How it was run: as §1

[26] = test system: NCI-H522; settings: Homo sapiens, single dose 10 µM, '-' = no inhibition, read-out: % Growth Inhibition
How it was run: as §1

[27] = test system: NCI/ADR-RES; settings: Homo sapiens, single dose 10 µM, '-' = no inhibition, read-out: % Growth Inhibition
How it was run: as §1

[28] = test system: OVCAR-3; settings: Homo sapiens, single dose 10 µM, '-' = no inhibition, read-out: % Growth Inhibition
How it was run: as §1

[29] = test system: OVCAR-4; settings: Homo sapiens, single dose 10 µM, '-' = no inhibition, read-out: % Growth Inhibition
How it was run: as §1

[30] = test system: OVCAR-5; settings: Homo sapiens, single dose 10 µM, '-' = no inhibition, read-out: % Growth Inhibition
How it was run: as §1

[31] = test system: PC-3; settings: Homo sapiens, single dose 10 µM, '-' = no inhibition, read-out: % Growth Inhibition
How it was run: as §1

[32] = test system: RPMI-8226; settings: Homo sapiens, single dose 10 µM, '-' = no inhibition, read-out: % Growth Inhibition
How it was run: as §1

[33] = test system: RXF 393; settings: Homo sapiens, single dose 10 µM, '-' = no inhibition, read-out: % Growth Inhibition
How it was run: as §1

[34] = test system: SF-295; settings: Homo sapiens, single dose 10 µM, '-' = no inhibition, read-out: % Growth Inhibition
How it was run: as §1

[35] = test system: SF-539; settings: Homo sapiens, single dose 10 µM, '-' = no inhibition, read-out: % Growth Inhibition
How it was run: as §1

[36] = test system: SK-MEL-28; settings: Homo sapiens, single dose 10 µM, '-' = no inhibition, read-out: % Growth Inhibition
How it was run: as §1

[37] = test system: SK-OV-3; settings: Homo sapiens, single dose 10 µM, '-' = no inhibition, read-out: % Growth Inhibition
How it was run: as §1

[38] = test system: SNB-19; settings: Homo sapiens, single dose 10 µM, '-' = no inhibition, read-out: % Growth Inhibition
How it was run: as §1

[39] = test system: SNB-75; settings: Homo sapiens, single dose 10 µM, '-' = no inhibition, read-out: % Growth Inhibition
How it was run: as §1

[40] = test system: SR; settings: Homo sapiens, single dose 10 µM, '-' = no inhibition, read-out: % Growth Inhibition
How it was run: as §1

[41] = test system: SW-620; settings: Homo sapiens, single dose 10 µM, '-' = no inhibition, read-out: % Growth Inhibition
How it was run: as §1

[42] = test system: T-47D; settings: Homo sapiens, T47D, single dose 10 µM, '-' = no inhibition, read-out: % Growth Inhibition
How it was run: as §1

[43] = test system: TK-10; settings: Homo sapiens, single dose 10 µM, '-' = no inhibition, read-out: % Growth Inhibition
How it was run: as §1

[44] = test system: U251; settings: Homo sapiens, U-251, single dose 10 µM, '-' = no inhibition, read-out: % Growth Inhibition
How it was run: as §1

[45] = test system: UACC-257; settings: Homo sapiens, single dose 10 µM, '-' = no inhibition, read-out: % Growth Inhibition
How it was run: as §1

[46] = test system: UACC-62; settings: Homo sapiens, single dose 10 µM, '-' = no inhibition, read-out: % Growth Inhibition
How it was run: as §1

[47] = test system: UO-31; settings: Homo sapiens, single dose 10 µM, '-' = no inhibition, read-out: % Growth Inhibition
How it was run: as §1

CCSc1nc(-c2ccc(Cl)cc2)cc(-c2ccc(OC)c(OC)c2)n1 [Compound 24, 4-(4-Chlorophenyl)-2-(ethylthio)-6-(3,4-dimethoxyphenyl)pyrimidine]
inhibition at 10 µM [1]: 11.8%
inhibition at 10 µM [2]: 1.95%
inhibition at 10 µM [3]: 23%
inhibition at 10 µM [4]: 7.24%
inhibition at 10 µM [5]: < 0%
inhibition at 10 µM [6]: 27.5%
inhibition at 10 µM [7]: 35.4%
inhibition at 10 µM [8]: 7.4%
inhibition at 10 µM [9]: 20.4%
inhibition at 10 µM [10]: 30.7%
inhibition at 10 µM [11]: 22.8%
inhibition at 10 µM [12]: < 0%
inhibition at 10 µM [13]: 1.94%
inhibition at 10 µM [14]: 28.3%
inhibition at 10 µM [15]: < 0%
inhibition at 10 µM [16]: 29.8%
inhibition at 10 µM [17]: 11.9%
inhibition at 10 µM [18]: 3.7%
inhibition at 10 µM [19]: < 0%
inhibition at 10 µM [20]: 11.3%
inhibition at 10 µM [21]: 16.9%
inhibition at 10 µM [22]: 37%
inhibition at 10 µM [23]: 1.67%
inhibition at 10 µM [24]: 13.8%
inhibition at 10 µM [25]: < 0%
inhibition at 10 µM [26]: 2.36%
inhibition at 10 µM [27]: 17.5%
inhibition at 10 µM [28]: < 0%
inhibition at 10 µM [29]: 26.4%
inhibition at 10 µM [30]: 11%
inhibition at 10 µM [31]: 26.4%
inhibition at 10 µM [32]: 26.4%
inhibition at 10 µM [33]: 23.5%
inhibition at 10 µM [34]: 7.88%
inhibition at 10 µM [35]: 7.9%
inhibition at 10 µM [36]: 5.5%
inhibition at 10 µM [37]: < 0%
inhibition at 10 µM [38]: 3.01%
inhibition at 10 µM [39]: 6.37%
inhibition at 10 µM [40]: 39.6%
inhibition at 10 µM [41]: 20.9%
inhibition at 10 µM [42]: 37.6%
inhibition at 10 µM [43]: < 0%
inhibition at 10 µM [44]: 14.7%
inhibition at 10 µM [45]: 13.5%
inhibition at 10 µM [46]: < 0%
inhibition at 10 µM [47]: 25.8%

CCCSc1nc(-c2ccc(Cl)cc2)cc(-c2ccc(OC)c(OC)c2)n1 [Compound 25, 4-(4-Chlorophenyl)-6-(3,4-dimethoxyphenyl)-2-(propylthio)pyrimidine]
inhibition at 10 µM [1]: < 0%
inhibition at 10 µM [2]: < 0%
inhibition at 10 µM [3]: 17.3%
inhibition at 10 µM [4]: 7.82%
inhibition at 10 µM [5]: < 0%
inhibition at 10 µM [6]: 13.5%
inhibition at 10 µM [7]: 31.7%
inhibition at 10 µM [8]: 17.6%
inhibition at 10 µM [9]: 5.09%
inhibition at 10 µM [10]: 20.9%
inhibition at 10 µM [11]: 15.5%
inhibition at 10 µM [12]: < 0%
inhibition at 10 µM [13]: < 0%
inhibition at 10 µM [14]: 14.7%
inhibition at 10 µM [15]: < 0%
inhibition at 10 µM [16]: 25.5%
inhibition at 10 µM [17]: 1.51%
inhibition at 10 µM [18]: < 0%
inhibition at 10 µM [19]: 7.34%
inhibition at 10 µM [20]: < 0%
inhibition at 10 µM [21]: 16.2%
inhibition at 10 µM [22]: 19.1%
inhibition at 10 µM [23]: 2.74%
inhibition at 10 µM [24]: 4.54%
inhibition at 10 µM [25]: < 0%
inhibition at 10 µM [26]: 8%
inhibition at 10 µM [27]: 11.2%
inhibition at 10 µM [28]: < 0%
inhibition at 10 µM [29]: 20.2%
inhibition at 10 µM [30]: 4.78%
inhibition at 10 µM [31]: 6.31%
inhibition at 10 µM [32]: 10.8%
inhibition at 10 µM [33]: 8.5%
inhibition at 10 µM [34]: 5.66%
inhibition at 10 µM [35]: 1.28%
inhibition at 10 µM [36]: 17.4%
inhibition at 10 µM [37]: 2.94%
inhibition at 10 µM [38]: < 0%
inhibition at 10 µM [39]: 2.64%
inhibition at 10 µM [40]: 24.9%
inhibition at 10 µM [41]: 3.63%
inhibition at 10 µM [42]: 34.5%
inhibition at 10 µM [43]: 11.6%
inhibition at 10 µM [44]: 7.53%
inhibition at 10 µM [45]: 24.8%
inhibition at 10 µM [46]: 3.23%
inhibition at 10 µM [47]: 8.18%
